According to patent US8815891B2, “Tricyclic derivative or pharmaceutically acceptable salts thereof, preparation method thereof, and pharmaceutical composition containing the same” (Je Il Pharmaceutical Co., Ltd., priority 2008, dated 2014):
Structures can show the parent of a compound that is named as a salt.

Target: PARP-1 enzyme (Homo sapiens (Human), UniProt P09874)
Assay: Poly(ADP-ribose)polymerase [PARP-1] enzyme inhibitory activity (Trevigen PARP Assay kit)
Format: biochemical
Conditions: PARP-1 enzyme, histone ribosylation, 450 nm; read-out: PARP-1 Inhibitory activity IC50
Method: The activity of the compounds according to the present invention to inhibit the PARP-1 enzyme was examined using a PARP Assay kit (4671-096-K) purchased from Trevigen. The assay was performed following a modified previously reported method by Lee et al [Methods Find, Exp. Clin. Pharmacol., 27, 617-622, 2005].
Histone was coated on 384-well plate, which is a small volume PS plate (784101) of Greiner Bio-One, and left at 25° C. for 2 hours. After that, the plate was rinsed four times with PBS (7.5 mM Na2HPO4, 2.5 mM NaH2PO4, 145 mM NaCl, pH 7.4), and in order to prevent non-specific reaction, the Strep-diluent (provided from kit of Trevigen) was added and left at 25° C. for one hour. After one hour, the plate was again rinsed with PBS four times, and the compounds of the Examples in various concentrations were put into reactant containing PARP-1 enzyme (0.12 unit/well), 2×PARP cocktail (1.95 mM NAD^+, 50 uM biotinylated NAD^+, and activated DNA in 50 mM Tris pH 8.0, 25 mM MgCl2) and allowed to react at 25° C. for 30 minutes. After 30 minutes, each well was rinsed with PBS four times, and in order to measure the amount of rybosylation by the PARP enzyme, strepavidin-linked peroxidase (Strep-HRP, 1:1000 diluted) was added and allowed to react at 37° C. for 30 minutes. The plate was rinsed with PBS four times, and TACS-Sapphire substrate was put and allowed to react at 25° C. for 10 minutes so that color reaction occurred. Finally, the reaction was terminated by the addition of 0.2 N HCl. The amount of histone ribosylation formed by PARP-1 enzyme was quantified at 450 nm using Wallac EnVision™ (PerkinElmer Oy, Turku, Finland).

Sequence of PARP-1 enzyme (P09874 whole entry): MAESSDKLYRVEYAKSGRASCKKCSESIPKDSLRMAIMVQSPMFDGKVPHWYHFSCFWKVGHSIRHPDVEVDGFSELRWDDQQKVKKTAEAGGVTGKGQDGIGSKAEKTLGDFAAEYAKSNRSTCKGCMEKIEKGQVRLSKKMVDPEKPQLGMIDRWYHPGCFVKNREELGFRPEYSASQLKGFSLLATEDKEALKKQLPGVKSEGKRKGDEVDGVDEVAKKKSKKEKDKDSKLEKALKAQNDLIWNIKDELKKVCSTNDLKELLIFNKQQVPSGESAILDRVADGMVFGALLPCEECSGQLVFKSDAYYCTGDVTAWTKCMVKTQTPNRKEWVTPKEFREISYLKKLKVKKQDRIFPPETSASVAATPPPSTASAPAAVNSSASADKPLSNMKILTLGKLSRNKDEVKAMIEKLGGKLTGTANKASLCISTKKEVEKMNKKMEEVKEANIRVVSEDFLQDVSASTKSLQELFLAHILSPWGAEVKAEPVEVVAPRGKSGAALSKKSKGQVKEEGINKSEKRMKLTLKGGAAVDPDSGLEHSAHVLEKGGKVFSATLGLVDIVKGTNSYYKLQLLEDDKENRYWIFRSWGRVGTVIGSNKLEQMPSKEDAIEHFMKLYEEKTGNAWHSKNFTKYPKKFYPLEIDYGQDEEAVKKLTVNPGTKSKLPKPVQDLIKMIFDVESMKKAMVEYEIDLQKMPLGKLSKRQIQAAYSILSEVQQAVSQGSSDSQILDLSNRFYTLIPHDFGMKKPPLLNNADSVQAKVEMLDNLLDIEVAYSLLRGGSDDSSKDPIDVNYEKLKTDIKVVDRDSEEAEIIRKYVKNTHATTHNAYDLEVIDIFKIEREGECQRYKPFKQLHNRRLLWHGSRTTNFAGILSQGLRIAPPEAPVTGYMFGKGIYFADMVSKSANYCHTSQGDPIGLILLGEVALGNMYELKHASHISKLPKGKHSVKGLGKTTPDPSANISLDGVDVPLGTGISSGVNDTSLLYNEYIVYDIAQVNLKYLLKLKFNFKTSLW

Structure (SMILES) | IC50
COc1ccc2c3c(c(=O)[nH]c2c1)CCCN3 [Example 1, 8-Methoxy-1,2,3,4-tetrahydrobenzo[h][1,6]naphthyridine-5(6H)-one hydrochloride] | > 4 µM
COc1ccc2[nH]c(=O)c3c(c2c1)NCCC3 [Example 3, 9-Methoxy-1,2,3,4-tetrahydrobenzo[h][1,6]naphthyridine-5(6H)-one hydrochloride] | 0.5 µM
CCCN1CCCc2c1c1cc(OC)ccc1[nH]c2=O [Example 6, 9-Methoxy-1-propyl-1,2,3,4-tetrahydrobenzo[h][1,6]naphthyridine-5(6H)-one hydrochloride] | > 4 µM
CN1CCCc2c1c1ccccc1[nH]c2=O [Example 7, 1-Methyl-1,2,3,4-tetrahydrobenzo[h][1,6]naphthyridine-5(6H)-one hydrochloride] | > 4 µM
COc1ccc2[nH]c(=O)c3c(c2c1)N(C)CCC3 [Example 8, 9-Methoxy-1-methyl-1,2,3,4-tetrahydrobenzo[h][1,6]naphthyridine-5(6H)-one hydrochloride] | > 4 µM
CCN1CCCc2c1c1cc(OC)ccc1[nH]c2=O [Example 9, 1-Ethyl-9-methoxy-1,2,3,4-tetrahydrobenzo[h][1,6]naphthyridine-5(6H)-one hydrochloride] | > 4 µM
CN1CCCc2c1c1cc(O)ccc1[nH]c2=O [Example 10, 1-Methyl-9-hydroxy-1,2,3,4-tetrahydrobenzo[h][1,6]naphthyridine-5(6H)-one hydrochloride] | > 4 µM
CN1CCC(Oc2ccc3[nH]c(=O)c4c(c3c2)N(C)CCC4)CC1 [Example 14, 1-Methyl-9-(1-methylpiperidine-4-yloxy)-1,2,3,4-tetrahydrobenzo[h][1,6]naphthyridine-5(6H)-one dihydrochloride] | > 4 µM
CN(C)CCOc1ccc2[nH]c(=O)c3c(c2c1)NCCC3 [Example 16, 9-[2-(Dimethylamino)ethoxy]-1,2,3,4-tetrahydrobenzo[h][1,6]naphthyridine-5(6H)-one dihydrochloride] | < 1 µM
O=c1[nH]c2ccc(OCCCN3CCCCC3)cc2c2c1CCCN2 [Example 21, 9-[3-(Piperidine-1yl)propoxy]-1,2,3,4-tetrahydrobenzo[h][1,6]naphthyridine-5(6H)-one dihydrochloride] | > 4 µM
O=c1[nH]c2ccc(OCCO)cc2c2c1CCCN2 [Example 24, 9-(2-Hydroxyethoxy)-1,2,3,4-tetrahydrobenzo[h][1,6]naphthyridine-5(6H)-one hydrochloride] | 1.08 µM
O=c1[nH]c2ccc(OCCc3ccccc3)cc2c2c1CCCN2 [Example 25, 9-Penethoxy-1,2,3,4-tetrahydrobenzo[h][1,6]naphthyridine-5(6H)-one dihydrochloride] | > 4 µM
CCN(CC)CCOc1ccc2[nH]c(=O)c3c(c2c1)NCCC3 [Example 26, 9-[2-(Diethylamino)ethoxy]-1,2,3,4-tetrahydrobenzo[h][1,6]naphthyridine-5(6H)-one dihydrochloride] | < 1 µM
CC[N+]1(CC)CCN(CCOc2ccc3[nH]c(=O)c4c(c3c2)NCCC4)CC1 [Example 28, 1,1-Diethyl-4-[2-(5-oxo-1,2,3,4,5,6-hexahydrobenzo[h][1,6]naphthyridine-9-yloxy]ethyl)piperazine-1-ium chloride] | > 4 µM
CN(C)CCc1ccc2[nH]c(=O)c3c(c2c1)NCCC3 [Example 31, 9-[2-(Dimethylamino)ethyl]-1,2,3,4-tetrahydrobenzo[h][1,6]naphthyridine-5(6H)-one dihydrochloride] | 1.07 µM
CN(C)CCCc1ccc2[nH]c(=O)c3c(c2c1)NCCC3 [Example 33, 9-[3-(Dimethylamino)propyl]-1,2,3,4-tetrahydrobenzo[h][1,6]naphthyridine-5(6H)-one dihydrochloride] | < 1 µM
CNC(C)c1ccc2c3c(c(=O)[nH]c2c1)CCCN3 (stereo not shown) [Example 39, 8-[1-(Methylamino)ethyl]-1,2,3,4-tetrahydrobenzo[h][1,6]naphthyridine-5(6H)-one dihydrochloride] | < 1 µM

Same assay, conditions: read-out: PARP-1 Inhibitory activity IC50

Structure (SMILES) | IC50
CCCN1CCC(Oc2ccc3[nH]c(=O)c4c(c3c2)NCCC4)CC1 [Example 11, 9-(1-Propylpiperidine-4-yloxy)-1,2,3,4-tetrahydrobenzo[h][1,6]naphthyridine-5(6H)-one dihydrochloride] | 1.03 µM
CN1CCC(Oc2ccc3[nH]c(=O)c4c(c3c2)NCCC4)CC1 [Example 12, 9-(1-Methylpiperidine-4-yloxy)-1,2,3,4-tetrahydrobenzo[h][1,6]naphthyridine-5(6H)-one dihydrochloride] | 1.07 µM
CN1CCCc2c1c1cc(OC3CCNCC3)ccc1[nH]c2=O [Example 13, 1-Methyl-9-(piperidine-4-yloxy)-1,2,3,4-tetrahydrobenzo[h][1,6]naphthyridine-5(6H)-one dihydrochloride] | 3.85 µM
CN(C)CCOc1ccc2[nH]c(=O)c3c(c2c1)NCCC3 [Example 16, 9-[2-(Dimethylamino)ethoxy]-1,2,3,4-tetrahydrobenzo[h][1,6]naphthyridine-5(6H)-one dihydrochloride] | 0.37 µM
O=c1[nH]c2ccc(OCCN3CCNCC3)cc2c2c1CCCN2 [Example 19, 9-[2-(Piperazine-1yl)ethoxy]-1,2,3,4-tetrahydrobenzo[h][1,6]naphthyridine-5(6H)-one trihydrochloride] | 1.48 µM
NCCOc1ccc2[nH]c(=O)c3c(c2c1)NCCC3 [Example 22, 9-(2-Aminoethoxy)-1,2,3,4-tetrahydrobenzo[h][1,6]naphthyridine-5(6H)-one dihydrochloride] | 1.16 µM
O=c1[nH]c2ccc(OCCN3CCC(c4ccccc4)CC3)cc2c2c1CCCN2 [Example 23, 9-[2-(4-Phenylpiperidine-1yl)ethoxy]-1,2,3,4-tetrahydrobenzo[h][1,6]naphthyridine-5(6H)-one dihydrochloride] | 1.43 µM
CCN(CC)CCOc1ccc2[nH]c(=O)c3c(c2c1)NCCC3 [Example 26, 9-[2-(Diethylamino)ethoxy]-1,2,3,4-tetrahydrobenzo[h][1,6]naphthyridine-5(6H)-one dihydrochloride] | 0.39 µM
O=c1[nH]c2ccc(OCCN3CCOCC3)cc2c2c1CCCN2 [Example 27, 9-(2-Morpholinoethoxy)-1,2,3,4-tetrahydrobenzo[h][1,6]naphthyridine-5(6H)-one dihydrochloride] | 2.64 µM
CN1CCCc2c1c1cc(OCCN3CCCCC3)ccc1[nH]c2=O [Example 30, 1-Methyl-9-[2-(piperidine-1-yl)ethoxy]-1,2,3,4-tetrahydrobenzo[h][1,6]naphthyridine-5(6H)-one dihydrochloride] | 3.11 µM
CN(C)CCCc1ccc2[nH]c(=O)c3c(c2c1)NCCC3 [Example 33, 9-[3-(Dimethylamino)propyl]-1,2,3,4-tetrahydrobenzo[h][1,6]naphthyridine-5(6H)-one dihydrochloride] | 0.93 µM
O=c1[nH]c2cc(OCCN3CCCCC3)ccc2c2c1CCCN2 [Example 35, 8-[2-(Piperidine-1yl)ethoxy]-1,2,3,4-tetrahydrobenzo[h][1,6]naphthyridine-5(6H)-one dihydrochloride] | 3.54 µM
CN(C)CCCOc1ccc2c3c(c(=O)[nH]c2c1)CCCN3 [Example 36, 8-[3-(Dimethylamino)propoxy]-1,2,3,4-tetrahydrobenzo[h][1,6]naphthyridine-5(6H)-one dihydrochloride] | 3.02 µM
CNC(C)c1ccc2c3c(c(=O)[nH]c2c1)CCCN3 (stereo not shown) [Example 39, 8-[1-(Methylamino)ethyl]-1,2,3,4-tetrahydrobenzo[h][1,6]naphthyridine-5(6H)-one dihydrochloride] | 0.1 µM
CCc1ccc2c3c(c(=O)[nH]c2c1)CCCN3 [Example 40, 8-Ethyl-1,2,3,4-tetrahydrobenzo[h][1,6]naphthyridine-5(6H)-one hydrochloride] | > 4 µM
CC(C)NCc1ccc2c3c(c(=O)[nH]c2c1)CCCN3 [Example 45, 8-[(Isopropylamino)methyl]-1,2,3,4-tetrahydrobenzo[h][1,6]naphthyridine-5(6H)-one dihydrochloride] | 0.26 µM
CCCNCc1ccc2c3c(c(=O)[nH]c2c1)CCCN3 [Example 46, 8-[(Propylamino)methyl]-1,2,3,4-tetrahydrobenzo[h][1,6]naphthyridine-5(6H)-one dihydrochloride] | 0.59 µM
